In ChEMBL document CHEMBL5620414, “Discovery of YK-029A, a novel mutant EGFR inhibitor targeting both T790 M and exon 20 insertion mutations, as a treatment for NSCLC” (Eur J Med Chem, 2023):

What was measured:
[1] = biological target: Epidermal growth factor receptor (Homo sapiens, UniProt P00533); assay: Inhibition of wildtype EGFR (unknown origin) incubated for 60 mins in presence of ATP by biochemical enzymatic assay
[2] = biological target: Epidermal growth factor receptor (Homo sapiens, UniProt P00533, L858R/T790M); assay: Inhibition of GST-tagged recombinant human EGFR T790M/L858R mutant (668 to 1210 residues) expressed in Insect cells incubated for 60 mins in presence of ATP by biochemical enzymatic assay; parameters: species or system Insect cell
[3] = tested on: A-431; assay: Antiproliferative activity against human A-431 cells harboring wildtype EGFR assessed as cell growth inhibition incubated for 72 hrs by CellTiter Glo assay; format: functional
[4] = tested on: PC-9; assay: Antiproliferative activity against human PC-9 cells harboring EGFR del19 mutant assessed as cell growth inhibition incubated for 72 hrs by CellTiter Glo assay; format: functional; settings: Homo sapiens, PC-9
[5] = tested on: HCC827; assay: Antiproliferative activity against human HCC827 cells harboring EGFR del19 mutant assessed as cell growth inhibition incubated for 72 hrs by CellTiter Glo assay; format: functional; settings: Homo sapiens, HCC827
[6] = tested on: NCI-H1975; assay: Antiproliferative activity against human NCI-H1975 cells harboring EGFR L858R/T790M mutant assessed as cell growth inhibition incubated for 72 hrs by CellTiter Glo assay; format: functional; settings: Homo sapiens, NCI-H1975

Sequence of Epidermal growth factor receptor (Homo sapiens, UniProt P00533) (P00533 whole entry, the tested form may be a part): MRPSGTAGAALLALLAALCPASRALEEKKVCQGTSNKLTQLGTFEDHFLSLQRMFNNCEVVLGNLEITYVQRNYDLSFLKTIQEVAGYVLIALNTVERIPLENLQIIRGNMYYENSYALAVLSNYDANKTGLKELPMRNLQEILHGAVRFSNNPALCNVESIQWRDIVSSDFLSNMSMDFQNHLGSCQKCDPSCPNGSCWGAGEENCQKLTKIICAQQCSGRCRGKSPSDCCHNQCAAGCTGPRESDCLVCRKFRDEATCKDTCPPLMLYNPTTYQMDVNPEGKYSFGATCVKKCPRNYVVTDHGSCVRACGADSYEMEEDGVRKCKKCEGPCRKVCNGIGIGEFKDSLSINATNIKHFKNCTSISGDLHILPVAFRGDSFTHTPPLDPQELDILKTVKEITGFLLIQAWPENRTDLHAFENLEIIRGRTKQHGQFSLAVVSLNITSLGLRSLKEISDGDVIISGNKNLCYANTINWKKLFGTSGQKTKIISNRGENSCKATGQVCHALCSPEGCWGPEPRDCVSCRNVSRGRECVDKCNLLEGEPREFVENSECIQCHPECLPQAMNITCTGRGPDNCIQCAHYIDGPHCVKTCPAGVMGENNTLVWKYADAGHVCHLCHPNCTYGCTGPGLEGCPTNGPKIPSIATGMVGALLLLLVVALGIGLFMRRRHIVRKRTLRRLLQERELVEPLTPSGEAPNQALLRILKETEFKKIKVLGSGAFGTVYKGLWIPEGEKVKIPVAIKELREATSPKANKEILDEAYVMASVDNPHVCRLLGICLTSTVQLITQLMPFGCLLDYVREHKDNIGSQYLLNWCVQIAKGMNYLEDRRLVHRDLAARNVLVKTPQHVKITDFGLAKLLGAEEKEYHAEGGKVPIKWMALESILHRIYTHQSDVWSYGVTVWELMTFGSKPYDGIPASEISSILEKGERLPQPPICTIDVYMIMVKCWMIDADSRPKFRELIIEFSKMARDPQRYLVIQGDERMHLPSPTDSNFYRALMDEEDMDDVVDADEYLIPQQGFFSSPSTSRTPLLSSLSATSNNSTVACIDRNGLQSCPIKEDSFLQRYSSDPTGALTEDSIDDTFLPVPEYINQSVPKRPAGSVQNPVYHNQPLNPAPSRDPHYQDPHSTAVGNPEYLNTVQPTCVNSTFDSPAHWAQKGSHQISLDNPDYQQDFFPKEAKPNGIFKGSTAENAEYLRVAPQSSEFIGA

Row | SMILES | IC50 [1] | IC50 [2] | GI50 [3] | GI50 [4] | GI50 [5] | GI50 [6]
1 | COc1cc(N(C)CCN(C)C)c(NC(=O)/C=C/CN(C)C)cc1Nc1nccc(-c2cnc3c(C)cccn23)n1 | 46.8 nM | 1.15 nM |  |  |  | 
2 | C=CC(=O)Nc1cc(Nc2nccc(-c3cnc4c(C)cccn34)n2)c(OC)cc1N(C)CCN1CCOCC1 | 212 nM | 1.59 nM |  |  |  | 
3 | C=CC(=O)Nc1cc(Nc2nccc(-c3cnn4c(C)cccc34)n2)c(OC)cc1N(C)CCN(C)C | 16.6 nM | 1.41 nM |  |  |  | 
4 | COc1cc(N(C)CCN(C)C)c(NC(=O)/C=C/CN(C)C)cc1Nc1nccc(-c2ncc3c(C)cccn23)n1 | 50.2 nM | 1.27 nM |  |  |  | 
5 | CC#CC(=O)Nc1cc(Nc2nccc(-c3cnc4c(C)cccn34)n2)c(OC)cc1N(C)CCN(C)C | 64.7 nM | 0.93 nM |  |  |  | 
6 | C=CC(=O)Nc1cc(Nc2nccc(-c3cnc4c(C)cccn34)n2)c(OC)cc1N(C)C1CCCN(C)C1 (stereo not drawn) | 82.8 nM | 1.77 nM |  |  |  | 
7 | CC#CC(=O)Nc1cc(Nc2nccc(-c3ncc4c(C)cccn34)n2)c(OC)cc1N(C)CCN(C)C | 49.1 nM | 1.38 nM |  |  |  | 
8 | C=CC(=O)Nc1cc(Nc2nccc(-c3ncc4c(C)cccn34)n2)c(OC)cc1N(C)CCN(C)C |  |  | 620 nM | 4.6 nM | 6.2 nM | 29 nM
